Columns and labels:
[1] = Plasma clearance in mouse assessed as hepatic extraction; format: ADME, cell-free; conditions: read-out: ERH
[2] = Drugmetabolism in human hepatocytes assessed as metabolite formation; format: ADME, cell-based, Hepatocyte
[3] = Toxicity in Athymic NTac:NIH-Whn nude rat xenografted with human Karpas-422 cells assessed as reduction in body weight at 60 mg/kg, po, qd measured upto 140 days; format: organism-based; conditions: in vivo, 3360 h, time < 140 day
[4] = Ratio of drug level in mouse blood to plasma; format: ADME, cell-free
[5] = biological target: Voltage-gated inwardly rectifying potassium channel KCNH2 (Homo sapiens, UniProt Q12809); assay: Inhibition of hERG potassium channel in HEK293 cells by manual patch clamp assay; format: toxicity, cell-based
Voltage-gated inwardly rectifying potassium channel KCNH2, sequence (Q12809 whole entry): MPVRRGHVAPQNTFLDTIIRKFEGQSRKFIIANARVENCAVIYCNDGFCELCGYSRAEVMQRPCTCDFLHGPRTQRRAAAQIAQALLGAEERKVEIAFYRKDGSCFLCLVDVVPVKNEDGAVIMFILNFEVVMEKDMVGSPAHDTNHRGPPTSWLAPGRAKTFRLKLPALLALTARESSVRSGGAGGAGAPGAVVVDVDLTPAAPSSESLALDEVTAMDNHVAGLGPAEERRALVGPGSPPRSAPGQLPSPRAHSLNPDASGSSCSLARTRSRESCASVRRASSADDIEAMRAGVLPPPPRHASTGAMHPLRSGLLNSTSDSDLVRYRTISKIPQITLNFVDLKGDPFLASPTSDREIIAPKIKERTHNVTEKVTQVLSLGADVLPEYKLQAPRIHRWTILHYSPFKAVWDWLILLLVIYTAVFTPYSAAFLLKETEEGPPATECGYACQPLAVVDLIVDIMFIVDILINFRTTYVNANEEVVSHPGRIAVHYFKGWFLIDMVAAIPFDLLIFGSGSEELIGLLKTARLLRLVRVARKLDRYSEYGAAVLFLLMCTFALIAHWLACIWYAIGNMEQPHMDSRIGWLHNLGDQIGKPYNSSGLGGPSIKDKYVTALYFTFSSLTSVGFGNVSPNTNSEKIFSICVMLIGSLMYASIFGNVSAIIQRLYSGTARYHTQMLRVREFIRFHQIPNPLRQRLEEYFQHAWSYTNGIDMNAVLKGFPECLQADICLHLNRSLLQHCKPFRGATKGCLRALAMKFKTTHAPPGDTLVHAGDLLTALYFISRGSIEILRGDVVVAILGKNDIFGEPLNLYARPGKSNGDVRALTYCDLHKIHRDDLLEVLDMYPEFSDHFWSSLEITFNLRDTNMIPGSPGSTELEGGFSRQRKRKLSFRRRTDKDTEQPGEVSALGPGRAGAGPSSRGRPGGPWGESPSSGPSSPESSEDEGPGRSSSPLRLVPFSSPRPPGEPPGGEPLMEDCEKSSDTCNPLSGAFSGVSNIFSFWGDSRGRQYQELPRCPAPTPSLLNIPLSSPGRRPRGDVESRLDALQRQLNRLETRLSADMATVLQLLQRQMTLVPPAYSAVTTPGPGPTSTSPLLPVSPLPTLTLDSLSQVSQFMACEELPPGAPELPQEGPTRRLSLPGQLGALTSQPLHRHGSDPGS

Cytochrome P450 3A5 = Cytochrome P450 3A5 (Homo sapiens, UniProt P20815); assay: Inhibition of CYP3A5 in human liver microsomes by LC-MS/MS analysis; format: ADME, Microsome
Cytochrome P450 3A5, sequence (P20815 whole entry): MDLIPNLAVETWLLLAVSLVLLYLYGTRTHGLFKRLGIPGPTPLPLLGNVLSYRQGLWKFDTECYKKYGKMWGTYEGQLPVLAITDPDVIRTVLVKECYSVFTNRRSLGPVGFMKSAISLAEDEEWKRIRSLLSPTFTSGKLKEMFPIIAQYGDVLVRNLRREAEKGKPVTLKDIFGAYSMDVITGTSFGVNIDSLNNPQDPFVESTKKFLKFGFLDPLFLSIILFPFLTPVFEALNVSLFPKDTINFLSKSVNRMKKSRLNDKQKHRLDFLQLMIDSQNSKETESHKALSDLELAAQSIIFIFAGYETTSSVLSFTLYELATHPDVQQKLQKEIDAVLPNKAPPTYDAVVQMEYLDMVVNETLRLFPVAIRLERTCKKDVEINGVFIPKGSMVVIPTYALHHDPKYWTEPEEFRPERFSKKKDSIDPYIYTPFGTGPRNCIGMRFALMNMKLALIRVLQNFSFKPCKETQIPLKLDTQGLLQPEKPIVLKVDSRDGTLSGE

[6] = Volume of distribution at steady state ICR (CD-1) mouse at 2 mg/kg, po or 1 mg/kg, iv after 1 week by LC-MS/MS analysis; format: ADME, organism-based; conditions: in vivo, 168 h, time 1 weeks
[7] = Plasma clearance in rat assessed as hepatic extraction; format: ADME, cell-free; conditions: read-out: ERH
[8] = biological target: Synaptic vesicular amine transporter (Homo sapiens, UniProt Q05940); assay: Inhibition of vesicular monoamine transporter 2 (unknown origin)
Synaptic vesicular amine transporter, sequence (Q05940 whole entry): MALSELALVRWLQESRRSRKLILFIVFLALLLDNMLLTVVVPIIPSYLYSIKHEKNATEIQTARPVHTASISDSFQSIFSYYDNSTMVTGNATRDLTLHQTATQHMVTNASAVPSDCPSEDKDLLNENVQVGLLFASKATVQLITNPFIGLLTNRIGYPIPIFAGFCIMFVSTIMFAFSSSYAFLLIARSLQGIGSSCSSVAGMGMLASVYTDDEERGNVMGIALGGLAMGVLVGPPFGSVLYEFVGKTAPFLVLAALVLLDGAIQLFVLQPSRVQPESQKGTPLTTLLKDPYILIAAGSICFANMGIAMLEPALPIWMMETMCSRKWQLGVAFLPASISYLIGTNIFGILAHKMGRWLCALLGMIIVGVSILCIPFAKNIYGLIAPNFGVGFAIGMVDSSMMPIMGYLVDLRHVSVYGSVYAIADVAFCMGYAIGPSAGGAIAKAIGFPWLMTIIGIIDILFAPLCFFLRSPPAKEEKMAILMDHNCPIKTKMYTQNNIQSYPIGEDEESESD

[9] = Volume of distribution at steady state in Sprague-Dawley rat at 2 mg/kg, po or 1 mg/kg, iv after 1 week by LC-MS/MS analysis; format: ADME, organism-based; conditions: in vivo, 168 h, time 1 weeks
[10] = biological target: T1, Alpha-2A adrenergic receptor (Homo sapiens, UniProt P08913); assay: Agonist activity at adrenergic receptor alpha2a (unknown origin); format: functional
T1 sequence (P08913 whole entry): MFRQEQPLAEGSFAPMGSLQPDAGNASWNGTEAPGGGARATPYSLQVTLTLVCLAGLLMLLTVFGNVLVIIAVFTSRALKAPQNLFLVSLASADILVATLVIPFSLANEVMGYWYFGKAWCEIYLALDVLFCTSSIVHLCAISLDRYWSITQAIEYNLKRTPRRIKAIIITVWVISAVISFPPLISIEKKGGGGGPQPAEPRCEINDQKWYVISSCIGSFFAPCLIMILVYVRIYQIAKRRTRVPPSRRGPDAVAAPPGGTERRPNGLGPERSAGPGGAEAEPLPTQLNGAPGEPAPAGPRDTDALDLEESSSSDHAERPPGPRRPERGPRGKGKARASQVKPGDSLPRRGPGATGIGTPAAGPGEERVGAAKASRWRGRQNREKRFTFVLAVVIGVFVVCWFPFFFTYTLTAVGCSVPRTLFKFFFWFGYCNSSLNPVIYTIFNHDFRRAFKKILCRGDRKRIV

[11] = biological target: T2, Muscarinic acetylcholine receptor M2 (Homo sapiens, UniProt P08172); assay: Agonist activity at muscarinic M2 receptor (unknown origin); format: functional
T2 sequence (P08172 whole entry): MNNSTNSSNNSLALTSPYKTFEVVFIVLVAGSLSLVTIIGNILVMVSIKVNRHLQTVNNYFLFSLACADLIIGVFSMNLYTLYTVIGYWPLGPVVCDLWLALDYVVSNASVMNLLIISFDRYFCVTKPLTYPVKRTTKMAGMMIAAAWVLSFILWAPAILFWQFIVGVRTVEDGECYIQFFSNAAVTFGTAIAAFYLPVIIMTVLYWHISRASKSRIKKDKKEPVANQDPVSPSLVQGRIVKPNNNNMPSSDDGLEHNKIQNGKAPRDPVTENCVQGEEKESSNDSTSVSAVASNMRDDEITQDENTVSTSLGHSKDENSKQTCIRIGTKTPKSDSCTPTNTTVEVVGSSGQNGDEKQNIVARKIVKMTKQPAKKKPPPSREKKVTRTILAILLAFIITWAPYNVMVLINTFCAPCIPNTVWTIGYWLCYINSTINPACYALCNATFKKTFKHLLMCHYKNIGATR

cells = conditions: Homo sapiens, G-401, 48 h
Description: Inhibition of PRC2 in human G-401 cells assessed as H3K27 methylation status incubated for 48 hrs by ELISA method

[12] = High throughput solubility of the compound at pH 1 after 16 to 24 hrs by MS/MS analysis; format: physicochemical; conditions: buffer, time 16-24 hrs
Cytochrome P450 2D6 = Cytochrome P450 2D6 (Homo sapiens, UniProt P10635); assay: Inhibition of CYP2D6 human liver microsomes using bufuralol as substrate incubated for 15 mins by LC-MS/MS analysis; format: ADME, Microsome
Cytochrome P450 2D6, sequence (P10635 whole entry): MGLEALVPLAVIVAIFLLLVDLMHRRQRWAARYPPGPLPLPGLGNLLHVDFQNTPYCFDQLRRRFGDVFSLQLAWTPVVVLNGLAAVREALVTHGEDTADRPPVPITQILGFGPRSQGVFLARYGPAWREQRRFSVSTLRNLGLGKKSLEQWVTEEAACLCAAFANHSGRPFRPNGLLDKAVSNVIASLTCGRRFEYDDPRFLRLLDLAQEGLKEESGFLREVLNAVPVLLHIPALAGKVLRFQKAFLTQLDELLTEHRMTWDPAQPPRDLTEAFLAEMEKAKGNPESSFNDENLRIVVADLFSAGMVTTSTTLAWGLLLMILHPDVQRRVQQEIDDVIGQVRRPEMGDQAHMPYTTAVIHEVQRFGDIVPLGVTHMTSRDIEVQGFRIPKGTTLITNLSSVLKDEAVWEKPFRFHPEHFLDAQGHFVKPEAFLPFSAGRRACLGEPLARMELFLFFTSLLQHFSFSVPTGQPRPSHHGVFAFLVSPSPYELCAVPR

[13] = Unbound plasma concentration in Athymic BALB/c nude mouse xenografted with human Karpas-422 cells at 10 to 300 mg/kg, po after 12 hrs by HPLC-MS/MS analysis; format: ADME, organism-based; conditions: in vivo, dose 10-300 mg/kg
[14] = Inhibition of PRC2 (unknown origin) assessed as reduction in H3K27 trimethylation using H3K27Me0 peptide (21 to 44 residues) as substrate by measuring SAH formation by LC-MS analysis; design: species or system Homo sapiens
[15] = Intrinsic clearance in dog hepatocytes measured per 10^6 cells; format: ADME, cell-based, Canis lupus familiaris, Hepatocyte; conditions: read-out: CLH
[16] = Drug metabolism in bile duct cannulated Wistar Han rat assessed as parent compound recovery in urine at 3 mg/kg, iv after 8 hrs by LC-MS/MS analysis; format: ADME, organism-based; conditions: read-out: Drug metabolism
[17] = Permeability across apical to basolateral side in human Caco-2 cells at 10 uM incubated for 2 hrs by LC/MS/MS analysis; format: ADME, cell-based; conditions: caco-2, 2 h, 10 µM
[18] = Metabolic stability in human microsomes assessed as intrinsic clearance; format: ADME, Microsome; conditions: read-out: CLH
[19] = Plasma clearance in rat; format: ADME, cell-free
[20] = Plasma clearance in mouse; format: ADME, cell-free
[21] = Dose normalized Cmax in Sprague-Dawley rat at 2 mg/kg, po or 1 mg/kg, iv after 1 week by LC-MS/MS analysis; format: ADME, organism-based; conditions: in vivo, 168 h, time 1 weeks
[22] = Dose normalized Cmax in wild type Beagle dog at 2 mg/kg, po or 1 mg/kg, iv after 1 week by LC-MS/MS analysis; format: ADME, organism-based, Canis lupus familiaris; conditions: in vivo, 168 h, time 1 weeks
Cytochrome P450 2C9 = Cytochrome P450 2C9 (Homo sapiens, UniProt P11712); assay: Inhibition of CYP2C9 in human liver microsomes using diclofenac as substrate incubated for 10 mins in presence of NADPH by LC-MS/MS analysis; format: ADME, Microsome
Cytochrome P450 2C9, sequence (P11712 whole entry): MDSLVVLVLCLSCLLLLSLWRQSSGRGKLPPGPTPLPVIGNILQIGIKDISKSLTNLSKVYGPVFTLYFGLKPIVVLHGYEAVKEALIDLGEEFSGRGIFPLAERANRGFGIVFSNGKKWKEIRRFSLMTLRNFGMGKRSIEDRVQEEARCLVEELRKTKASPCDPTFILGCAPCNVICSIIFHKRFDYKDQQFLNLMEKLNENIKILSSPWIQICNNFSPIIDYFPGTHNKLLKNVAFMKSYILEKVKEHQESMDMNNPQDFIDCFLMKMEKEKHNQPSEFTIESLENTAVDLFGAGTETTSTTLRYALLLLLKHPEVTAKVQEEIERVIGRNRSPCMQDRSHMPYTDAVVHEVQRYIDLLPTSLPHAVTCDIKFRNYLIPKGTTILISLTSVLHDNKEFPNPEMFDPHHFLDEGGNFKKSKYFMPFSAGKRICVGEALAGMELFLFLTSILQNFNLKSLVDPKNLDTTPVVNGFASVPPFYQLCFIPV

[23] = Antitumor activity against human Karpas-422 cells xenografted Athymic BALB/c nude mouse assessed as minimum effective dose administered twice a day for 30 days; format: functional; conditions: KARPAS-422, 720 h, time 30 day, read-out: MED
[24] = Lipophilicity, logD of the compound at pH 7.4 by LC with tandem MS analysis; format: physicochemical; conditions: buffer
[25] = biological target: 3',5'-cyclic-AMP phosphodiesterase 4D (Homo sapiens, UniProt Q08499); assay: Inhibition of human Phosphodiesterase 4D
3',5'-cyclic-AMP phosphodiesterase 4D, sequence (Q08499 whole entry): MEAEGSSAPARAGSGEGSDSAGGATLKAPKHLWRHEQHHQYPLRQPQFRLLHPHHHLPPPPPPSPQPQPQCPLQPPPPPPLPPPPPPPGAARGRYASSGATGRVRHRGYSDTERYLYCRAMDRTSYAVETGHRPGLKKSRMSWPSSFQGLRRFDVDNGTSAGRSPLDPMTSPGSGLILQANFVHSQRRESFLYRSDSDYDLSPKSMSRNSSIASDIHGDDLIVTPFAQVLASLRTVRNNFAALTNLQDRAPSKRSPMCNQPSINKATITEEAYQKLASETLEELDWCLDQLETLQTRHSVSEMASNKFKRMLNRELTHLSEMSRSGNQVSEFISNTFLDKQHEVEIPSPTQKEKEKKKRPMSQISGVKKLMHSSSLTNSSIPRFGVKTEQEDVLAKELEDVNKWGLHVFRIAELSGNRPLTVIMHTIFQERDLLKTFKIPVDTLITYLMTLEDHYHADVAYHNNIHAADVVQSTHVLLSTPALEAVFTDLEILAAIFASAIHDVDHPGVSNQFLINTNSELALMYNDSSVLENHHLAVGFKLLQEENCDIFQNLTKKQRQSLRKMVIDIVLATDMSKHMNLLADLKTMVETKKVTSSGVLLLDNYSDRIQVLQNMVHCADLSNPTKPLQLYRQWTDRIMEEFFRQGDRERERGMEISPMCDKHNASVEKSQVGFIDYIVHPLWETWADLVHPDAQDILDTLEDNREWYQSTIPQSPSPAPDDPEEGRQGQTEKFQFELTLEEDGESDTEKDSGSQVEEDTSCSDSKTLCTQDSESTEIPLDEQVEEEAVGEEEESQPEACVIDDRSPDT

[26] = Permeability across basolateral to apical side in human Caco-2 cells incubated for 2 hrs by LC/MS/MS analysis; format: ADME, cell-based; conditions: read-out: permeability
[27] = In vivo inhibition of PRC2 in PBMC collected from human Karpas-422 cells xenografted Athymic NTac:NIH-Whn nude rat assessed as reduction in H3K27me3 level at 10 mg/kg, po, qd for 42 days measured after 4 hrs of last dose by FACS method; format: functional; design: scale not given: the % may be the effect or the level left; conditions: time 42 day

- hepatic extraction ratio [1]: 0.42
- Drug metabolism [2]: Metabolite_Notdetected
- blood plasma ratio [4]: 1.03
- IC50 (Cytochrome P450 3A5): > 18 µM
- Vdss [6]: 3.5 L/kg
- hepatic extraction ratio [7]: 0.18
- IC50 [8]: 1.8 µM
- Vdss [9]: 2 L/kg
- IC50 [10]: 9.6 µM
- IC50 [11]: 8.9 µM
- IC50 (cells): 3 µM
- solubility [12]: > 13 mM
- IC50 (Cytochrome P450 2D6): > 18 µM
- Cp(f) [13]: 8 nM
- IC50 [14]: 9 µM
- hepatocyte CLint [15]: 4.8 µL/min/1e6 cells
- dose excreted at 8 h [16]: 0.5%
- permeability [17]: 2.8 10^-6 cm/s
- microsomal CLint [18]: 33 µL/min/mg
- clearance [19]: 10 mL/min/kg
- clearance [20]: 38 mL/min/kg
- Cmax/dose [21]: 427 nM
- Cmax/dose [22]: 400 nM
- IC50 (Cytochrome P450 2C9): > 20 µM
- logD [24]: 3.88
- IC50 [25]: 6.4 µM
- Papp B→A at 2 h [26]: 37 ×10⁻⁶ cm/s
SMILES: Cc1ncccc1-c1cnc(NCc2c(F)ccc3c2CCO3)n2cnnc12
- Activity [3]: Toxic
- IC50 [5]: > 30 µM
- minimal effective dose [23]: 3 mg/kg
- Activity [27]: 97%

From ChEMBL document CHEMBL5154826, “Discovery of the Clinical Candidate MAK683: An EED-Directed, Allosteric, and Selective PRC2 Inhibitor for the Treatment of Advanced Malignancies” (J Med Chem, 2022)
